The source of these data is patent publication US9493833B1, “Methods for preventing induced synthesis of proteasomes in human cells” (THE REGENTS OF THE UNIVERSITY OF CALIFORNIA, priority 2009, dated 2016).

The conditions of data set [1]: after administration; cited from earlier work.
In another data set the test system is PSM genes. The data set is described as follows: PSM gene mRNA by quantitative RT-PCR in LNCaP cells treated with MG132 and HDAC inhibitors. The following applies: 10 hrs; for MG132-mediated upregulation of representative PSM genes: MG132 1 μM + TSA 1 μM or MG132 1 μM + SAHA 1 μM; for steady-state PSM gene expression: TSA 1 μM or SAHA 5 μM alone. Format: cell-based, human. The procedure:
(§1) LNCaP cells were subjected to treatment with one of MG132 (1 μM), TSA (1 μM), SAHA (5 μM), MG132 (1 μM)+TSA (1 μM), or MG132 (1 μM)+SAHA (1 μM) for 10 hrs and the RNA from these cells was used for quantitative RT-PCR to assess the mRNA levels of representative PSM genes (FIG. 5A). The values were normalized to GAPDH and the DMSO-treated sample was set to 1. A representative experiment performed in duplicates is shown. MDA-MB-231 cells were treated with different agents at the same concentrations as above (except MG132 which was used at 5 μM) for 48 hrs after which the cells were used for cell-titer glo assay to assess cell viability. Data from an experiment performed in quadruplicates is shown (FIG. 5B). LNCaP cells transfected with 8×ARE-SV40-Luc construct alone (control) or co-transfected with Flag-Nrf1 were further treated with different agents as indicated (FIG. 10). pRL-TK renilla luciferase expression construct was used as a transfection control for normalization. Sixteen hours later, the cells were harvested and used for Luciferase assay.
(§2) RNA was isolated using the RNeasy kit (Qiagen). cDNA was prepared using the Superscript III first strand synthesis kit (Invitrogen) according to the manufacturer's recommendations. Quantitative PCR (qPCR) was performed using the SYBR GreenER supermix (Invitrogen).

A further data set has as its system MDA-MB-231 cells. The data set is described as follows: Cell-titer glo cell viability, MG132 combined with TSA or SAHA. The following applies: MDA-MB-231, MG132 5 μM combined with TSA or SAHA, 48 hrs. Type of data set: cell-based, human. The procedure: as §1
Cells in 96-well plates were treated with different agents as required and cell viability was assessed using the Cell-Titer Glo kit (G7572; Promega) according to the protocol recommended by the manufacturer. By employing a luminescence read-out, this kit quantifies the level of ATP which is proportional to the number of viable cells.

Data set [2] relates to anti-oxidant response elements (8×AREs). The data set is described as follows: 8×ARE-SV40-Luc luciferase reporter assay in LNCaP cells. The following applies: TSA or SAHA added with MG132, 16 hours. Format: cell-based, human. The method, then: TSA and SAHA were assayed using a luciferase reporter construct. The luciferase reporter was driven by a promoter harboring multimerized anti-oxidant response elements (8×AREs) and was transfected into LNCaP cells.
as §1
(§3) Cells were transiently transfected with the firefly (promoter reporters) and renilla luciferase (pRL-TK; Promega) constructs along with effector plasmid as required. After harvesting the cells, luciferase assays were performed using the Dual Luciferase reporter assay system (E1910; Promega) according to the instructions from the manufacturer. The firefly luciferase activity was normalized to renilla luciferase activity for all experiments.
In general terms: In a reporter assay the amount or activity of a reporter protein is the signal.

Data set [3] concerns PSM genes (PSMA7, PSMB4, PSMB7, PSMC1, PSMC4, PSMD1, PSMD12). The data set is described as follows: mRNA levels of representative PSM genes by quantitative RT-PCR in LNCaP and HT-29 cells treated with proteasome inhibitors or MLN4924. Type of data set: cell-based, human. The note with it: 10 hrs, normalized to GAPDH, DMSO set to 1. The procedure: The human prostate cancer LNCaP and colon cancer HT29 cell lines were incubated with different proteasome inhibitors (MG132, YU101, and bortezomib) or the Nedd8 pathway inhibitor MLN4924 (Soucy et al., 2009, Nature, 458, 732-736). Prostate cancer LNCaP and colon cancer HT-29 cells were treated with the indicated concentrations of proteasome inhibitors (MG132, YU101, and Bortezomib) or the Nedd8 pathway inhibitor (MLN4924) for 10 hrs, and mRNA levels of representative PSM genes were analyzed by quantitative RT-PCR (FIGS. 1A-1C). The values were normalized to GAPDH and for each cell line the DMSO treated sample was set to 1. Error bars denote SD (n=3). […] MLN4924 works by inhibiting the Nedd8-activating enzyme, the result of which is the accumulation of cullin-RING ligase (CRL) substrates (Soucy et al., 2009).
as §2

In data set [4] the target is T1, proteasome (chymotryptic site) (Homo sapiens, UniProt P20618+P28074).
T1 construct: endogenous in cells; host or cells: HT29 human colon cancer cells, treated intact; activity measured in freeze-thaw lysate
Nature of the data set: Proteasome activity recovery assay in HT29 cells after drug wash-out. Format: cell-based. The note with it: HT-29; HT29, 1 hr; MG132 2 μM, YU101 100 nM, Bortezomib 40 nM. The method, then:
Cells were frozen at different time points as indicated and were used for proteasome activity assays as described herein. For each time point, the results are normalized to DMSO-treated control in the case of hatched lines and to CHX-treated control in the case of solid lines. Error bars denote SD (n=3). […] The results were normalized to DMSO-treated control for each cell type. Error bars denote S.E.M. (n=2). […] The next day, the cells were treated with indicated concentrations of YU101 and the pan-caspase inhibitor Z-VAD-FMK, and further incubated for 72 hrs. The cell viability was then assessed using the CellTiter-Glo method (FIG. 12A). The results were normalized to DMSO-treated control which was set to 100% in each case. Error bars denote S.E.M. (n=2). […] The cell lysates were used for immunoblotting to detect the levels of Nrf1 (with the antibody raised against N-terminus) and cleaved caspase-3. β-actin protein levels were used as loading control. […] The cells were then washed with PBS thrice and allowed to recover in fresh medium. At definite time points, the cells were freeze-thawed in TE buffer (20 mM Tris pH 8, 5 mM EDTA) and subsequently used for measuring proteasome activity as described previously (Demo et al., 2007).

Another data set deals with PSMA4 ARE. Nature of the data set: 3×PSMA4-ARE-Luc / 3×PSMA4-mutARE-Luc luciferase assay in LNCaP cells. The following applies: LNCaP. Type of data set: cell-based, human. The method, then: Sequence alignment of the genomic region close to the transcription start site (indicated by +1) of the PSMB6 gene in mouse and human. The putative ARE sequences and the start codon are marked as shown (FIG. 6). WT and Nrf1^−/− MEFs were transfected with the PSMB6-Luc construct and 24 hrs post-transfection, the cells were treated with the indicated concentration of MG132 for 12 hrs after which luciferase assays were performed as described herein (FIG. 7). Error bars denote SD (n=3). […] LNCaP cells were transiently transfected with the indicated reporter constructs along with either a vector control or Flag-Nrf1 expression construct. Forty-eight hours (hrs) after transfection, the cells were further incubated with the indicated concentration of MG132 for 12 hrs after which luciferase assays were performed as described herein (FIG. 9). Error bars denote SD (n=3).
as §3

On to `CC(C)C[C@H](NC(=O)[C@H](CCc1ccccc1)NC(=O)CN1CCOCC1)C(=O)N[C@@H](Cc1ccccc1)C(=O)N[C@@H](CC(C)C)C(=O)[C@@]1(C)CO1` [carfilzomib], for which the “clearance from the patients' blood” value in data set [1] is “rapidly cleared from the patients' blood within the first hour”.

For `CC(/C=C/C(=O)NO)=C\[C@@H](C)C(=O)c1ccc(N(C)C)cc1` [TSA, trichostatin A], in the data set on PSM genes, the “MG132-mediated upregulation of representative PSM genes” value is “reproducibly inhibited the MG132-mediated upregulation of representative PSM genes” and the “steady-state PSM gene expression” value is listed as “little effect on steady-state PSM gene expression”. In addition, the “apoptosis / cell viability in combination with MG132” value in the data set on MDA-MB-231 cells was “enhanced apoptosis (decreased viability)”. Also, the “luciferase activity (8×ARE reporter) in combination with MG132” value in data set [2] is on record as “basal levels of luciferase activity were observed”.

On to `CC(C)C[C@H](NC(=O)[C@H](Cc1ccccc1)NC(=O)c1cnccn1)B(O)O` [bortezomib], for which the “mRNA levels of PSM genes” value in data set [3] is given as “robustly induce mRNA levels of several PSM genes”. The inhibition – broadly, how much of the control response was suppressed – at 0.04 µM in data set [4] fell in the range of 80 to 90%. Also, the “clearance from the patients' blood” value in data set [1] was “rapidly cleared from the patients' blood within the first hour”.

Consider `O=C(CCCCCCC(=O)Nc1ccccc1)NO` [SAHA, suberoylanilide hydroxamic acid], for which, in the data set on PSM genes, the “MG132-mediated upregulation of representative PSM genes” value is listed as “reproducibly inhibited the MG132-mediated upregulation of representative PSM genes” and the “steady-state PSM gene expression” value is “little effect on steady-state PSM gene expression”. Also, in the data set with MDA-MB-231 cells, the “apoptosis / cell viability in combination with MG132” value is listed as “enhanced apoptosis (decreased viability)”. The “luciferase activity (8×ARE reporter) in combination with MG132” value in data set [2] was “basal levels of luciferase activity were observed”.

B1: Flag-Nrf1: human Nrf1 with N-terminal 3×FLAG tag, expressed from pMSCV-hyg retroviral vector (protein, UniProt Q14494 1-772, looked up)
Endoplasmic reticulum …: MLSLKKYLTEGLLQFTILLSLIGVRVDVDTYLTSQLPPLREIILGPSSAYTQTQFHNLRNTLDGYGIHPKSIDLDNYFTARRLLSQVRALDRFQVPTTEVNAWLVHRDPEGSVSGSQPNSGLALESSSGLQDVTGPDNGVRESETEQGFGEDLEDLGAVAPPVSGDLTKEDIDLIDILWRQDIDLGAGREVFDYSHRQKEQDVEKELRDGGEQDTWAGEGAEALARNLLVDGETGESFPAQVPSGEDQTALSLEECLRLLEATCPFGENAEFPADISSITEAVPSESEPPALQNNLLSPLLTGTESPFDLEQQWQDLMSIMEMQAMEVNTSASEILYSAPPGDPLSTNYSLAPNTPINQNVSLHQASLGGCSQDFLLFSPEVESLPVASSSTLLPLAPSNSTSLNSTFGSTNLTGLFFPPQLNGTANDTAGPELPDPLGGLLDEAMLDEISLMDLAIEEGFNPVQASQLEEEFDSDSGLSLDSSHSPSSLSSSEGSSSSSSSSSSSSSSASSSASSSFSEEGAVGYSSDSETLDLEEAEGAVGYQPEYSKFCRMSYQDPAQLSCLPYLEHVGHNHTYNMAPSALDSADLPPPSALKKGSKEKQADFLDKQMSRDEHRARAMKIPFTNDKIINLPVEEFNELLSKYQLSEAQLSLIRDIRRRGKNKMAAQNCRKRKLDTILNLERDVEDLQRDKARLLREKVEFLRSLRQMKQKVQSLYQEVFGRLRDENGRPYSPSQYALQYAGDGSVLLIPRTMADQQARRQERKPKDRRK
modifications: N-terminal 3xFLAG tag
notes: human Nrf1 with N-terminal 3×FLAG tag, expressed from pMSCV-hyg retroviral vector
Take B1: the “luciferase activity (3×PSMA4-mutARE-Luc, AREs mutated)” value with PSMA4 ARE (mutated AREs) was “neither MG132 nor overexpressed Flag-Nrf1 induced the synthetic promoter construct”. Moreover, the “luciferase activity (3×PSMA4-ARE-Luc)” value with PSMA4 ARE (versus DMSO-treated / vector control, MG132 12 hrs) was “activated this synthetic promoter construct”.
